Measured values taken from the supplement of paper PMC10307832.

How the values were obtained:
Assay in all cases: relative viability (nuclei count vs DMSO), 5 days (fraction); higher = more cells survive
ABC-1 = system: ABC-1
Method in brief: (§1)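 One day after seeding in 1536-well plates, lung cancer cell lines were dosed by pin tool. Dosing was either single-drug or a fixed anchor-drug dose plus five library-drug doses (not always all listed) in √10 steps. After 5 days, nuclei were stained in one fix-and-stain step and counted on 4× images, and relative viability is the nuclei count of treated wells over that of vehicle wells, given as the median of duplicate plates.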

NCI-H2087 = system: NCI-H2087
Method in brief: as §1

NCI-H2228 = system: NCI-H2228
Method in brief: as §1

LC-2-ad = system: LC-2-ad
Method in brief: as §1

NCI-H3122 = system: NCI-H3122
Method in brief: as §1

CAL-12T = system: CAL-12T
Method in brief: as §1

NCI-H460 = system: NCI-H460
Method in brief: as §1

PC-3 [JPC-3] = system: PC-3 [JPC-3]
Method in brief: as §1

NCI-H1944 = system: NCI-H1944
Method in brief: as §1

NCI-H2405 = system: NCI-H2405
Method in brief: as §1

RERF-LC-KJ = system: RERF-LC-KJ
Method in brief: as §1

NCI-H1755 = system: NCI-H1755
Method in brief: as §1

LU99A = system: LU99A
Method in brief: as §1

NCI-H1395 = system: NCI-H1395
Method in brief: as §1

NCI-H2170 = system: NCI-H2170
Method in brief: as §1

NCI-H1734 = system: NCI-H1734
Method in brief: as §1

NCI-H1793 = system: NCI-H1793
Method in brief: as §1

UMC-11 = system: UMC-11
Method in brief: as §1

LOU-NH91 = system: LOU-NH91
Method in brief: as §1

NCI-H1651 = system: NCI-H1651
Method in brief: as §1

ChaGo-K-1 = system: ChaGo-K-1
Method in brief: as §1

SMILES: CC1(C)CCC(c2ccc(Cl)cc2)=C(CN2CCN(c3ccc(C(=O)NS(=O)(=O)c4ccc(N[C@H](CCN5CCOCC5)CSc5ccccc5)c(S(=O)(=O)C(F)(F)F)c4)cc3)CC2)C1 [Navitoclax] + CCNC(=O)c1noc(-c2cc(C(C)C)c(O)cc2O)c1-c1ccc(CN2CCOCC2)cc1 [Luminespib] (partner 0.01 µM)
- relative viability (ABC-1; first compound 0.005 µM): 0.596
- relative viability (ABC-1; first compound 0.01581 µM): 0.909
- relative viability (ABC-1; first compound 0.05 µM): 0.677
- relative viability (ABC-1; first compound 0.5 µM): 0.6
- relative viability (NCI-H2087; first compound 0.005 µM): 0.207
- relative viability (NCI-H2087; first compound 0.01581 µM): 0.204
- relative viability (NCI-H2087; first compound 0.1581 µM): 0.153
- relative viability (NCI-H2087; first compound 0.5 µM): 0.208
- relative viability (NCI-H2228; first compound 0.005 µM): 0.148
- relative viability (NCI-H2228; first compound 0.01581 µM): 0.148
- relative viability (NCI-H2228; first compound 0.1581 µM): 0.146
- relative viability (NCI-H2228; first compound 0.5 µM): 0.142
- relative viability (LC-2-ad; first compound 0.005 µM): 0.993
- relative viability (LC-2-ad; first compound 0.01581 µM): 1.16
- relative viability (LC-2-ad; first compound 0.05 µM): 0.912
- relative viability (LC-2-ad; first compound 0.1581 µM): 0.907
- relative viability (LC-2-ad; first compound 0.5 µM): 0.856
- relative viability (NCI-H3122; first compound 0.005 µM): 0.09
- relative viability (NCI-H3122; first compound 0.01581 µM): 0.0825
- relative viability (NCI-H3122; first compound 0.05 µM): 0.11
- relative viability (NCI-H3122; first compound 0.1581 µM): 0.083
- relative viability (NCI-H3122; first compound 0.5 µM): 0.0991
- relative viability (CAL-12T; first compound 0.005 µM): 0.308
- relative viability (CAL-12T; first compound 0.01581 µM): 0.563
- relative viability (CAL-12T; first compound 0.05 µM): 0.708
- relative viability (CAL-12T; first compound 0.1581 µM): 0.826
- relative viability (CAL-12T; first compound 0.5 µM): 0.251
- relative viability (NCI-H460; first compound 0.005 µM): 0.0372
- relative viability (NCI-H460; first compound 0.01581 µM): 0.0368
- relative viability (NCI-H460; first compound 0.05 µM): 0.0365
- relative viability (NCI-H460; first compound 0.1581 µM): 0.0311
- relative viability (NCI-H460; first compound 0.5 µM): 0.033
- relative viability (PC-3 [JPC-3]; first compound 0.005 µM): 0.738
- relative viability (PC-3 [JPC-3]; first compound 0.01581 µM): 0.807
- relative viability (PC-3 [JPC-3]; first compound 0.05 µM): 0.765
- relative viability (PC-3 [JPC-3]; first compound 0.1581 µM): 0.684
- relative viability (PC-3 [JPC-3]; first compound 0.5 µM): 0.724
- relative viability (NCI-H1944; first compound 0.005 µM): 0.731
- relative viability (NCI-H1944; first compound 0.01581 µM): 0.717
- relative viability (NCI-H1944; first compound 0.05 µM): 0.553
- relative viability (NCI-H1944; first compound 0.1581 µM): 0.733
- relative viability (NCI-H1944; first compound 0.5 µM): 0.665
- relative viability (NCI-H2405; first compound 0.005 µM): 0.89
- relative viability (NCI-H2405; first compound 0.01581 µM): 0.727
- relative viability (NCI-H2405; first compound 0.05 µM): 0.755
- relative viability (NCI-H2405; first compound 0.1581 µM): 0.765
- relative viability (NCI-H2405; first compound 0.5 µM): 0.702
- relative viability (RERF-LC-KJ; first compound 0.005 µM): 1.32
- relative viability (RERF-LC-KJ; first compound 0.01581 µM): 1.23
- relative viability (RERF-LC-KJ; first compound 0.05 µM): 1.17
- relative viability (RERF-LC-KJ; first compound 0.1581 µM): 1.18
- relative viability (RERF-LC-KJ; first compound 0.5 µM): 1.04
- relative viability (NCI-H1755; first compound 0.005 µM): 0.381
- relative viability (NCI-H1755; first compound 0.01581 µM): 0.393
- relative viability (NCI-H1755; first compound 0.05 µM): 0.332
- relative viability (NCI-H1755; first compound 0.1581 µM): 0.173
- relative viability (NCI-H1755; first compound 0.5 µM): 0.426
- relative viability (LU99A; first compound 0.005 µM): 0.221
- relative viability (LU99A; first compound 0.01581 µM): 0.217
- relative viability (LU99A; first compound 0.05 µM): 0.154
- relative viability (LU99A; first compound 0.1581 µM): 0.168
- relative viability (LU99A; first compound 0.5 µM): 0.274
- relative viability (NCI-H1395; first compound 0.005 µM): 0.741
- relative viability (NCI-H1395; first compound 0.01581 µM): 0.836
- relative viability (NCI-H1395; first compound 0.05 µM): 0.714
- relative viability (NCI-H1395; first compound 0.1581 µM): 0.577
- relative viability (NCI-H1395; first compound 0.5 µM): 0.793
- relative viability (NCI-H2170; first compound 0.005 µM): 0.519
- relative viability (NCI-H2170; first compound 0.01581 µM): 0.806
- relative viability (NCI-H2170; first compound 0.05 µM): 0.552
- relative viability (NCI-H2170; first compound 0.1581 µM): 0.67
- relative viability (NCI-H2170; first compound 0.5 µM): 0.538
- relative viability (NCI-H1734; first compound 0.005 µM): 0.174
- relative viability (NCI-H1734; first compound 0.01581 µM): 0.191
- relative viability (NCI-H1734; first compound 0.1581 µM): 0.182
- relative viability (NCI-H1734; first compound 0.5 µM): 0.16
- relative viability (NCI-H1793; first compound 0.005 µM): 0.262
- relative viability (NCI-H1793; first compound 0.01581 µM): 0.177
- relative viability (NCI-H1793; first compound 0.1581 µM): 0.216
- relative viability (NCI-H1793; first compound 0.5 µM): 0.17
- relative viability (UMC-11; first compound 0.005 µM): 0.986
- relative viability (UMC-11; first compound 0.01581 µM): 1.07
- relative viability (UMC-11; first compound 0.05 µM): 1.13
- relative viability (UMC-11; first compound 0.1581 µM): 1.05
- relative viability (UMC-11; first compound 0.5 µM): 0.829
- relative viability (LOU-NH91; first compound 0.005 µM): 0.349
- relative viability (LOU-NH91; first compound 0.01581 µM): 0.362
- relative viability (LOU-NH91; first compound 0.05 µM): 0.327
- relative viability (LOU-NH91; first compound 0.1581 µM): 0.321
- relative viability (LOU-NH91; first compound 0.5 µM): 0.275
- relative viability (NCI-H1651; first compound 0.005 µM): 0.966
- relative viability (NCI-H1651; first compound 0.01581 µM): 0.971
- relative viability (NCI-H1651; first compound 0.05 µM): 0.563
- relative viability (NCI-H1651; first compound 0.1581 µM): 0.809
- relative viability (NCI-H1651; first compound 0.5 µM): 0.712
- relative viability (ChaGo-K-1; first compound 0.005 µM): 0.708
- relative viability (ChaGo-K-1; first compound 0.01581 µM): 0.593
- relative viability (ChaGo-K-1; first compound 0.05 µM): 0.306
- relative viability (ChaGo-K-1; first compound 0.1581 µM): 0.578
- relative viability (ChaGo-K-1; first compound 0.5 µM): 0.636
